# In patent publication US20250212873A1, “VOLATILE HDAC INHIBITORS FOR THERAPEUTIC AND PLANT APPLICATIONS” (The Regents of the University of California, priority 2022, published 2025):
# “Also recorded” adds a separate entry of the source.
# Assays:
# [1] = tested on: Arabidopsis thaliana seedlings; experiment: Odor Exposure assay, Arabidopsis thaliana seedlings (root and leaf development); assay type: in vivo; details: 10-fold lower dose (0.1% solution headspace)
# [2] = tested on: SH-SY5Y Cancer cell line; experiment: Cancer cell viability assay, SH-SY5Y; assay type: cell-based
# Experimental: (§1) Cells were maintained in a 37° C. incubator with 5% CO2 throughout the experiment. Compound stocks were dissolved in 10% DMSO, but final concentrations were made fresh in complete media as needed. 10% DMSO solvent was used as control in complete media. Cells were seeded onto 12-well plates and allowed 12-24 hours until treatment began to allow cells to adhere to wells. This was followed by minimum 5-day treatment of compounds, changing the media with treatment every 48 hours. Cell lines A549, PC3, and SK-MEL-5 were seeded at 8000 cells/well which would provide 80-100% confluency after 6-day growth. SH-SY5Y was seeded at 8000 cells/well then 16,000 cells/well due to slower growth and given at least 10 days for sufficient growth. After allotted growth times, cell counts were performed via Countess™ automated cell counter. All assays were completed with a minimum of triplicate replicates for all conditions and analyzed through GraphPad Prism One-way ANOVA for significance.
# [3] = tested on: PC3 Cancer cell line; experiment: Cancer cell viability assay, PC3; assay type: cell-based
# Experimental: as §1
# [4] = tested on: A. thaliana plants (Col-0); experiment: Weed killing assay; assay type: in vivo, Arabidopsis thaliana; details: 1% (volume/volume) in PO, 7 days vapor exposure, 4 weeks recovery
# Text: Since large scale changes in gene expression occur it is presumed that higher doses of some of the compounds could negatively affect some plants, even causing death. Since Arabidopsis thaliana is also considered a type of weed and goes by the common name Thale cress, it was used as a model to test the weed killing potential at higher doses. In order to evaluate the activity of some of these volatiles in plant killing twenty-seven day old A. thaliana plants (Col-0), that had been transplanted at day 7 to soil, were placed in 10-gallon glass aquarium as chamber along with a petridish containing 2 ml of chemical dissolved in PO at 1% (volume/volume) or PO alone were placed at the other side of the container. Plants were exposed to odor vapors for 7 days and observed for death.
# Twenty-seven day old A. thaliana plants (Col-0), that had been transplanted at day 7 to soil, were placed in 10-gallon glass aquarium as chamber along with a petridish containing 2 ml of chemical dissolved in PO at 1% (volume/volume) or PO alone were placed at the other side of the container. Plants were exposed to odor vapors for 7 days and observed for death.
# [5] = tested on: Arabidopsis thaliana seedlings; experiment: Odor Exposure assay, Arabidopsis thaliana seedlings (root and leaf development); assay type: in vivo
# Experimental: The Odor Exposure assay consists of controlled exposure of volatile odor compounds to model plant Arabidopsis within enclosed aquariums and similar growth conditions (23° C. with a 12-hour light/dark cycle). For Arabidopsis, seedlings were aligned on agar plates for growth after a 4-day cold treatment process. The agar plates with seedlings were then placed in enclosed aquariums with moist paper towels soaked in 10 ml of DI water for humidity. The plates were placed along the wall, approximately 12 cm from odor dispensers which resided in the center of the glass tank.
# The test compound odor dispensers, consisting of (60×15 mm) polystyrene Petri dishes containing 2 ml of 1% v/v in PO, are replaced at the 3.5, 5, and 6-day time mark during the 7-day experiment. Root growth is marked during each time mark and the plates were imaged. The plants are to be collected after the 7-day exposure, photographed, and the leaves/roots carefully dissected separated, flash frozen in liquid nitrogen, and preserved for future sequencing. Root growth is measured using ImageJ.
# In order to study the physiological effects of long-term exposure to microbial volatiles the model system Arabidopsis was exposed for […] to diacetyl, a volatile chemical emitted by fermentation by yeast or microbial degradation in the soil associated with roots (R. J. Morcillo et al., EMBO J 39, e102602 (2020); M. A. Farag, et al., Phytochemistry 67, 2262-2268 (2006); and C. M. Ryu et al., P Natl Acad Sci USA 100, 4927-4932 (2003). The Odor Exposure assay consisted of controlled exposure of volatile HDAC inhibiting compounds to model plant Arabidopsis within enclosed aquariums and similar growth conditions. The test compound odor cartridges, consisting of 60×15 mm polystyrene Petri dishes containing 2 ml of indicated concentration in Paraffin Oil, were replaced at the 3.5, 5, and 6-day time mark during the 7-day experiment (FIG. 1A, left). In separate experiments the weight loss from the odor cartridges over time was measured and used it to calculate the concentration of diacetyl in the glass chambers in parts per million (FIG. 1A, right).
# In order to directly evaluate whether exposure to vapors of the four HDAC-inhibitory VOCs affect root development, we performed a set of experiments using A. thaliana seedlings as before. Solutions for each of the four chemicals on a small petri dish were placed away from the seedlings growing in agar plate and enclosed in glass tank. The Root tips were marked at specified days post treatment start and photographs analyzed. The plants were collected after the 7-day exposure, photographed, and the roots were separated. Detailed measurements were made from the photos using ImageJ and the root length and numbers of lateral roots quantified at day 3.5 and day 7 after start if the treatment (FIG. 1B).
# The Odor Exposure assay consists of controlled exposure of volatile odor compounds to model plant Arabidopsis within enclosed aquariums and similar growth conditions (23° C. with a 12-hour light/dark cycle). The test compound odor cartridges, consisting of (60×15 mm) polystyrene Petri dishes containing 2 ml of 1% v/v in paraffin oil (PO), were replaced at the 3.5, 5, and 6-day time mark during the 7-day experiment. Root growth was marked during each time point and the plates were imaged. Numbers of true leaves were also counted. The plants are to be collected after the 7-day exposure, photographed, and the leaves/roots carefully dissected separated, flash frozen in liquid nitrogen, and preserved for future sequencing. Root growth is measured using ImageJ.
# [6] = 7-day exposure, headspace of 1% v/v in Paraffin oil
structure (smiles),measurement,setting,value
"CC(=O)C(C)=O [2,3-butanedione]",change from solvent treated seedlings in every growth category,[1],significant change
same,"inhibition of neuroblastoma (SH-SY5Y) cell line, summary",[2],has potential in inhibiting
same,"changes in proliferation, SH-SY5Y",[2]; 33 micro-molar,significant inhibition of cell growth; also recorded: Significant changes in proliferations
same,"changes in proliferation, SH-SY5Y",[2]; 100 micro-molar,significant inhibition of cell growth; also recorded: Significant changes in proliferations
same,"inhibition of prostate cancer (PC3) cell line, summary",[3],has potential in inhibiting
same,"changes in proliferation, PC3","[3]; 33 uM, triplicates",No Significant changes in proliferations
same,plants killed (dead),[4],6 of 8
same,root growth,"[5]; 3.5-day exposure, headspace of 1% v/v in Paraffin oil",significant root growth inhibition
same,lateral root growth (number of lateral roots),[5]; [6],increase; also recorded: notable lateral root promotion; also recorded: significant phenotypic changes
same,leaf development (number of large / true leaves),[5]; [6],changes in the number of true leaf development/growth; also recorded: significant phenotypic changes
same,lateral root growth (number of lateral roots),"[5]; 7-day exposure, headspace of 1% v/v in Paraffin oil, listed as 2,3-butandione",promoted lateral root growth
same,leaf development (number of large / true leaves),"[5]; 7-day exposure, headspace of 1% v/v in Paraffin oil, listed as diacetyl",significant decreases
same,root growth (primary root length),"[5]; 7-day exposure, headspace of solution in Paraffin oil",lack of growth
same,"lateral roots, number relative to control","[5]; highest dose, 7-day exposure",~3 times
